What was measured:
[1] = Physical characteristics of LNPs (particle size, PDI); assay type: physicochemical; details: for PDI DNA / Particle Size (nm) DNA: LNP with Fluc DNA, compound/DOPE/Cholesterol/DMG-PEG2000 38/50/10.0/2.0, Lipid:DNA 45:1 (w/w); for PDI RNA / Particle Size (nm) RNA: LNP with Fluc mRNA, compound/DOPE/Cholesterol/DMG-PEG2000 41.44/45.85/10/2.7, Lipid:RNA 40:1 (w/w)
[2] = system: liver cells; test: In vivo LNP delivery of firefly luciferase mRNA to liver, bioluminescent imaging (BLI); design: species or system BALB/C mice; details: 0.5 mg/kg fLuciferase mRNA i.v., BLI at 4 hr; for Ave flux (p/s) n = 3: adult female BALB/C mice, LNP as in Example 66
Description: Adult female BALB/C mice (n=3/group) were intravenously administered 0.5 mg/kg of 5′-CleanCap-fLuciferase mRNA (TriLink Biotech) formulated with LNP compositions as described in Example 66. One group of mice was treated with vehicle (PBS, Thermo Fisher Scientific, USA) as a negative control.
(§1) The location and extent of luciferase expression in treated and control mice were determined at 4 hr by bioluminescent imaging (BLI) of anesthetized mice using an IVIS Lumina in vivo imaging system (Perkin Elmer) according to the manufacturer's instructions. Briefly, mice were anesthetized using isoflurane in oxygen, and placed supine on a heated stage. Mice were then administered D-luciferin (Perkin-Elmer #122799) IP, and BLI was performed.
Adult female BALB/C mice (n=3/group) were intravenously administered 0.5 mg/kg of 5′-CleanCap-fLuciferase mRNA (TriLink Biotech) formulated with the LNP compositions shown in Table 25. One group of mice was treated with vehicle (PBS, Thermo Fisher Scientific, USA) as a negative control. […]

[3] = Body weight change of mice after LNP administration; assay type: in vivo, BALB/C mice; details: for Ave weight change (gram) n = 3: 24 hrs after 0.5 mg/kg LNP encapsulating firefly luciferase mRNA, adult female BALB/C mice
Description: The mice above were also monitored for changes in body weight after LNP delivery. Mice were manually weighed on a scale before LNP dosage and then weighed 24 hrs after administration of 0.5 mg/kg of LNP article encapsulating Cleancap firefly luciferase mRNA. The average of weight change n=3 is reported below.
In addition, the body weight of mice treated with the LNP compositions of Table 25 was assessed prior to intravenous administration and twenty-four hours post-administration and the body weights at baseline and post-treatment were compared. The average percentage of body weight change for each group of mice treated with each LNP composition of Table 25 is shown in Table 28. […]

[4] = system: liver cells; test: In vivo LNP delivery of nanoplasmid CMV-firefly luciferase DNA to liver of juvenile mice, BLI; details: juvenile female BALB/C mice age 14 days; 0.25 mg/kg nanoplasmid CMV-firefly luciferase retroorbital i.v.; BLI at 4 hr
Description: Juvenile female BALB/C mice of age 14 days (n=4/group) were retroorbitally intravenously administered 0.25 mg/kg of nanoplasmid CMV-firefly luciferase (Nature Technology Corp) formulated with LNP compositions as described in Example 66. One group of mice was treated with vehicle (PBS, Thermo Fisher Scientific, USA) as a negative control.
as §1

[5] = system: liver cells; test: In vivo LNP delivery of firefly luciferase DNA to liver of adult mice, BLI; design: species or system BALB/C mice; details: BLI at 24 hr; for Mean Liver Luciferase Flux (p/s): AM-TTR firefly luciferase nanoplasmid DNA 0.5 mg/kg, adult BALB/C, n=3
Description: as §1
The location and extent of luciferase expression in treated and control mice were determined at 4 hr and 48 hr by bioluminescent imaging (BLI) of anesthetized mice using an IVIS Lumina in vivo imaging system (Perkin Elmer) according to the manufacturer's instructions. Briefly, mice were anesthetized using isoflurane in oxygen, and placed supine on a heated stage. Mice were then administered D-luciferin (Perkin-Elmer #122799) IP, and BLI was performed.
The location and extent of luciferase expression in treated and control mice were determined at 24 hr by bioluminescent imaging (BLI) of anesthetized mice using an IVIS Lumina in vivo imaging system (Perkin Elmer) according to the manufacturer's instructions. Briefly, mice were anesthetized using isoflurane in oxygen, and placed supine on a heated stage. Mice were then administered D-luciferin (Perkin-Elmer #122799) IP, and BLI was performed.
One group of mice was treated with an LNP composition of the present disclosure comprising Compound No. 30 as a positive control.
The location and extent of luciferase expression in treated and control mice were determined at 4 hr for RNA delivery, or 48 hr for DNA delivery, by bioluminescent imaging (BLI) of anesthetized mice using an IVIS Lumina in vivo imaging system (Perkin Elmer) according to the manufacturer's instructions. Briefly, mice were anesthetized using isoflurane in oxygen, and placed supine on a heated stage. Mice were then administered D-luciferin (Perkin-Elmer #122799) IP, and BLI was performed.

SMILES | PDI DNA [1] | Particle Size (nm) DNA [1] | PDI RNA [1] | Particle Size (nm) RNA [1] | Mean Liver Luciferase Flux (p/s) ([2]; LNP compositions of Table 25, adult female BALB/C, n=3) | Ave flux (p/s) n = 3 [2] | Ave weight change (gram) n = 3 [3] | % Body Weight Change 24 hr ([3]; LNP compositions of Table 25, 0.5 mg/kg fLuciferase mRNA i.v., 24 hr post-administration vs baseline) | Ave flux (p/s) n = 4 [4] | luciferase expression by BLI after DNA LNP, liver specific promoter (in words) ([5]; 0.5 mg/kg total DNA, nanoplasmid firefly luciferase under AM-TTR promoter, adult BALB/C mice) | Mean Liver Luciferase Flux (p/s) ([5]; LNP (Table 47) with Compound No. 30 prepared according to Alternative General Procedure K) | Mean Liver Luciferase Flux (p/s) ([5]; LNP (Table 47) with Compound No. 30 prepared according to Alternative General Procedure L) | Mean Liver Luciferase Flux (p/s) ([5]; LNP (Table 47) with Compound No. 30 prepared according to Example 21)
CC(C)CCCC1CCC(C(=O)OCCOC(=O)CCN(CCCN(C)CCCN(CCC(=O)OCCOC(=O)C2CCC(CCCC(C)C)CC2)CCC(=O)OCCOC(=O)C2CCC(CCCC(C)C)CC2)CCC(=O)OCCOC(=O)C2CCC(CCCC(C)C)CC2)CC1 (centres unmarked) [Compound 30] | 0.167 | 276.9 nm | 0.170 | 326.7 nm | 1.28e11 p/s | 3.26E+10 p/s | −5.67 gram | −2.8% | 7332500000 p/s | successfully delivered DNA to liver cells | 31400000 p/s | 29600000 p/s | 21266666.67 p/s
CC(C)CCCC(C)CCCC1CCC(C(=O)OCCOC(=O)CCN(CCCN2CCN(CCCN(CCC(=O)OCCOC(=O)C3CCC(CCCC(C)CCCC(C)C)CC3)CCC(=O)OCCOC(=O)C3CCC(CCCC(C)CCCC(C)C)CC3)CC2)CCC(=O)OCCOC(=O)C2CCC(CCCC(C)CCCC(C)C)CC2)CC1 (centres unmarked) [Compound 16, ((3,3′,3″,3″-((piperazine-1,4-diylbis(propane-3,1-diyl))bis(azanetriyl))tetrakis(propanoyl))tetrakis(oxy))tetrakis(ethane-2,1-diyl)tetrakis(4-(4,8-dimethylnonyl)cyclohexanecarboxylate)] | 0.108 | 326.3 nm | 0.142 | 354.0 nm | – | 3.67E+10 p/s | −3.60 gram | – | 8905000000 p/s | – | – | – | –

— patent US20250099383A1, “COMPOSITIONS AND METHODS FOR DELIVERY OF NUCLEIC ACIDS” (Poseida Therapeutics, Inc., priority 2022, published 2025)
